Experimental data reported in patent publication US10738011B2, “Derivatives of 5-(hetero)arylpyrazol-3-carboxylic amide or 1-(hetero)aryltriazol-4-carboxylic amide useful for the treatment of inter alia cystic fibrosis” (Proteostasis Therapeutics, Inc., priority 2014, dated 2020).

Target: T1, ΔF508-CFTR (Homo sapiens, UniProt P13569, DEL508-508)
T1 construct: Primary lung epithelial cells homozygous for the Cystic Fibrosis-causing ΔF508 mutation were differentiated; endogenous in cells; host or cells: primary lung (bronchial) epithelial cells (hBE) homozygous for ΔF508, differentiated at an air-liquid interface
T1 sequence (P13569 with tags, fused parts or gaps DEL508-508): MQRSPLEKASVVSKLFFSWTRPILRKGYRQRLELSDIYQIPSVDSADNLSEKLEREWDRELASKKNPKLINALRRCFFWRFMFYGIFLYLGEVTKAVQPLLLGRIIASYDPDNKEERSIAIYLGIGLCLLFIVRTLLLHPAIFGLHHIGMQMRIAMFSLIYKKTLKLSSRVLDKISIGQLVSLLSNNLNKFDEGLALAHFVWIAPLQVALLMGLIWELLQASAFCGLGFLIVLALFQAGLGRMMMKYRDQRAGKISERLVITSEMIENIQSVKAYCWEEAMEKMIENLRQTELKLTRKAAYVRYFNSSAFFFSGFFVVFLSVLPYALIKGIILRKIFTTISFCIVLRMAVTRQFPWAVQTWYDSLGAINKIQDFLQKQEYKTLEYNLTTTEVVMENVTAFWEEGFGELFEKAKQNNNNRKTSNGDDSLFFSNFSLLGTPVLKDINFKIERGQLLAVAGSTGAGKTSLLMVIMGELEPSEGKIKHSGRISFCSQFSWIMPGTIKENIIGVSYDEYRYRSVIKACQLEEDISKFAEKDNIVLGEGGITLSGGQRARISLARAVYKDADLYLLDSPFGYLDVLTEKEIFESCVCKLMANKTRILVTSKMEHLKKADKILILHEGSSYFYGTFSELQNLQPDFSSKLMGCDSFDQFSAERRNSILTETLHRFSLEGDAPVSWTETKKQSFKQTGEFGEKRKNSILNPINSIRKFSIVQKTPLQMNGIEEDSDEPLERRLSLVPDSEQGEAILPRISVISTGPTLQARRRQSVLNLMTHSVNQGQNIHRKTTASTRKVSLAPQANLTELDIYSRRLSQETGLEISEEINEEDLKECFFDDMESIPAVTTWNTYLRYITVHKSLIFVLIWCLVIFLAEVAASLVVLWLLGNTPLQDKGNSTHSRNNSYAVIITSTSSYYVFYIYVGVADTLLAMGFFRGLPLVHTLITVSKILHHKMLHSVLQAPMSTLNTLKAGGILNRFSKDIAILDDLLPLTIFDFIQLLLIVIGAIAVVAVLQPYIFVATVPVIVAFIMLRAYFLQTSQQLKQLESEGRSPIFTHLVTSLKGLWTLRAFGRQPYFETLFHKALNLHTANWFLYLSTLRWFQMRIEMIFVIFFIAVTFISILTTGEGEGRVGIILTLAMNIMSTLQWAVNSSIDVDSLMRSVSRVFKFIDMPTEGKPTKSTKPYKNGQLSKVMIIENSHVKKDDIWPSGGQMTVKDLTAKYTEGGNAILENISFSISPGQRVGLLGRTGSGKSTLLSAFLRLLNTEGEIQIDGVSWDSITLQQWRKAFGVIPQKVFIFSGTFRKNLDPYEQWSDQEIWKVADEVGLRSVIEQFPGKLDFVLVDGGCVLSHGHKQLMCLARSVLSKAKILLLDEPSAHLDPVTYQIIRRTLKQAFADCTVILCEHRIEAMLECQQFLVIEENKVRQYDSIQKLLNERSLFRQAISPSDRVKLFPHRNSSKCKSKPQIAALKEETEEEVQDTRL
Assay: hBE Equivalent Current (Ieq) Assay
Assay type: cell-based
Conditions: AUC of equivalent chloride current; primary lung epithelial cells homozygous for ΔF508; compound at 10 uM with VX-809 at 1 uM, 24 hours; activity relative to VX-809 (1 uM)
Method: Primary lung epithelial cells homozygous for the Cystic Fibrosis-causing ΔF508 mutation were differentiated for a minimum of 4 weeks in an air-liquid interface on Costar 24 well HTS filter plates prior to the equivalent current (Ieq) measurements. Cells were apically mucus-washed for 30 minutes 24 h prior to treatment with compounds. The basolateral media was removed and replaced with media containing the compound of interest diluted to its final concentration from DMSO stocks. Treated cells were incubated at 37° C. and 5% CO2 for 24 hours. At the end of the treatment period, the media was changed to the Ieq experimental solution for 30 minutes before the experiment and plates are maintained in a CO2-free incubator during this period. The plates containing the cells were then placed in pre-warmed heating blocks at 36° C.±0.5 for 15 minutes before measurements are taken. The transepithelial voltage (VT) and conductance (GT) were measured using a custom 24 channel current clamp (TECC-24) with 24 well electrode manifold. The Ieq assay measurements were made following additions with standardized time periods: • 1. The baseline VT and GT values were measured for approximately 20 minutes. • 2. Benzamil was added to block ENaC for 15 minutes. • 3. Forskolin plus VX-770 were added to maximally activate ΔF508-CFTR for 27 minutes. • 4. Bumetanide was added to inhibit the NaK2Cl cotransporter and shut-off secretion of chloride.
The activity data captured was the area under the curve (AUC) for the traces of the equivalent chloride current. The AUC was collected from the time of the forskolin/VX-770 addition until the inhibition by bumetanide addition. Correction in response to compound treatment was scored as the increase in the AUC for compound-treated samples over that of vehicle-treated samples. (** indicates activity ≥200% of VX-809 (1 uM) with compound at 10 uM and VX-809 at 1 uM; * indicates activity 100-200% of VX-809 (1 uM) with compound at 10 uM and VX-809 at 1 uM. ^## indicates activity ≥200% of VX-809 (3 uM) with compound at 10 uM and VX-809 at 3 uM; ^# indicates activity 100-200% of VX-809 (3 uM) with compound at 10 uM and VX-809 at 3 uM.

SMILES	Ieq
COCCNC(=O)c1cc(-c2ccccc2)n[nH]1	* (activity 100-200% of VX-809 (1 uM) with compound at 10 uM and VX-809 at 1 uM)
O=C(NCC1CCCO1)c1cc(-c2ccccc2)n[nH]1 (stereo not shown)	* (activity 100-200% of VX-809 (1 uM) with compound at 10 uM and VX-809 at 1 uM)
O=C(NCCN1CCOCC1)c1cc(-c2ccccc2)n[nH]1	* (activity 100-200% of VX-809 (1 uM) with compound at 10 uM and VX-809 at 1 uM)
O=C(NCCCn1ccnc1)c1cc(-c2ccccc2)n[nH]1	* (activity 100-200% of VX-809 (1 uM) with compound at 10 uM and VX-809 at 1 uM)
